Where “and” joins values, the source holds several entries; their conditions need not be identical. Equal values may be shown once. Entries after “also recorded” stand apart in the source; their conditions may differ.
Key:
[1] = tested on: patients with mild to moderate psoriasis; test: Clinical response by Psoriasis Area and Severity Index (PASI) score, phase 1 placebo-controlled study; assay type: in vivo, human; conditions: for LSm (±SE) % improvement from baseline in total PASI score: 200 mg BID oral, fed; for LSm (±SE) % improvement from baseline in total PASI score / ΔLSm (±SE) (Compound 1 minus placebo) in % improvement from baseline in total PASI score: MMRM
Description: A double-blind, randomized, placebo-controlled phase 1 study was carried out in participants with mild to moderate psoriasis. Study participants were randomized to 200 mg twice a day (BID) of Compound 1 or placebo in 2:1 ratio (approximately 24 in the treatment group and 12 in the placebo group). The study comprised an up to 4-week screening period, and a 4-week treatment period with Compound 1 or placebo. An end-of-study visit was carried out 10±3 days after the last investigational medicinal product (IMP) administration.
(§1) The primary objective of the study was to assess the safety, tolerability, and clinical efficacy of Compound 1 at 200 mg BID via oral administration. Also evaluated was the clinical effect of Compound 1 as compared to placebo on the percent change in PASI and TLS scores from baseline to week 2 and week 4. The percent change in PASI score from baseline to week 4 was determined. TLS score was also assessed over the same time period. Also assessed was the effect of Compound 1 on biomarkers of psoriasis. Blood samples collected at predetermined time points were processed to quantify serum levels of biomarkers, including interleukin (IL)-17A, IL-17F, and IL-22 by high sensitivity methods. IL-17A, IL-17F and IL-22 are the main cytokines released by Th17 cells. Plasma levels of Compound 1 were measured to assess pharmacokinetics in the study population.
(§2) Two study interventions were used, Compound 1 and placebo. The Compound 1 intervention comprised 4× tablets of Compound 1 50 mg twice daily, i.e. 200 mg BID, for 4 weeks. The placebo intervention was 4× tablets of placebo twice daily for 4 weeks. Tablets were administered orally.
The interventions were used in two arms of the study. Arm 1 was the experimental arm and it involved participants receiving 200 mg of Compound BID for 4 weeks under fed conditions. Arm 2 was the placebo arm and it involved participants receiving the matching placebo tablets for 4 weeks under fed conditions.
The PASI scoring system evaluates psoriasis based on the body surface area (BSA) involvement and morphological characteristics of the plaques (see, e.g., EMA Guidelines on clinical investigation of medicinal products indicated for the treatment of psoriasis, Nov. 18, 2004). BSA estimation was performed using the ‘palm’ (i.e., the subject's flat hand and thumb together, fingers not included). The palm thus defined represented 1% of the total BSA. The PASI combines assessments of four body areas: head (h, 10%), upper extremities (u, 20%), trunk (t, 30%) and lower extremities (1, 40%). Using the palm to assess BSA (as described above) the proportion of skin affected by psoriasis in each area was given a numerical score (A) representing the proportion involved: 1 (0 to 9%); 2 (10 to 29%); 3 (30 to 49%); 4 (50 to 69%); 5 (70 to 89%) and 6 (90 to 100%). Within each area the severity of three signs, erythema (E), thickness/induration (I), and desquamation/scaling (D), was each assessed on a five-point scale: 0, none; 1, mild; 2, moderate; 3, severe; 4, very severe. The PASI ranges from 0 to 72 and is calculated using the following formula: […]
The PASI score was assessed at baseline, 2 weeks and 4 weeks. Table 4 below presents the LSm (±SE) for each treatment and ΔLSm (Compound 1 minus placebo) with 90% confidence interval (CI) in percentage improvement from baseline in the total PASI score at week 2 and week 4.
The results in Table 4 were obtained using the MMRM.
Table 5 below presents the mean (±SEM) percentage improvements from baseline in the total PASI score at week 2 and week 4 in the patient population with PASI<10 (mild) or PASI≥[…] at baseline.
The results in Table 5 come from standard descriptive analysis, ^(1)N=3, ^(2)N=15.

[2] = tested on: IL-17A; test: Serum levels of biomarker IL-17A (single molecule counting sandwich immunoassay); assay type: in vivo, human
Description: as §1, §2
Blood samples were processed for analysis of IL-17A, IL-17F and IL-22 in serum samples by high sensitivity methods. Samples were collected according to the schedule of activity described above.
As indicated above, peripheral blood samples collected at predetermined time points were processed to quantify serum levels of biomarkers of psoriasis including IL-17A, IL-17F, and IL-22. Levels of IL-17A and IL-17F were quantified using a single molecule counting sandwich immunoassay (SMCxPro™, Millipore—see also Hwang et al., Methods (2019) 158:69-76). Levels of IL-22 were quantified using a single-molecule array ELISA (SIMOA™, Myriad RBM—see also Rissin et al., Anal Chem (2011) 83(6):2279-2285). Statistical analysis was based on geometric mean ratio to baseline; a two-sample t-test at significance alpha level of 5% was used for calculation of the p-values.

CN1C(=O)c2cccc(OC(F)F)c2[C@H]2C[C@@H]1c1nc3ccc(-c4cnc(C5(N)CCC5)nc4)cc3n12 [Compound 1, (7R,14R)-11-[2-(1-aminocyclobutyl)pyrimidin-5-yl]-1-(difluoromethoxy)-6-methyl-6,7-dihydro-7,14-methanobenzimidazo[1,2-b][2,5]benzodiazocin-5(14H)-one]
Mean (±SEM) % improvement from baseline in total PASI score ([1]; PASI < 10 (mild) population, week 2, 200 mg BID, N = 16, SEM 3.98): 21.24% and 21.2%
Mean (±SEM) % improvement from baseline in total PASI score ([1]; PASI < 10 (mild) population, week 4, 200 mg BID, N = 15, SEM 5.34): 33.8% and 33.83%
Mean (±SEM) % improvement from baseline in total PASI score ([1]; PASI ≥ 10 (moderate) population, week 2, 200 mg BID, N = 9): 9.3% and 9.31% and 9.3 (3.60) %
Mean (±SEM) % improvement from baseline in total PASI score ([1]; PASI ≥ 10 (moderate) population, week 4, 200 mg BID, N = 9): 33.2% and 33.19% and 33.2 (4.03) %
improvement in PASI score (in words) ([1]; after 4 weeks of treatment): clinically meaningful
improvement in psoriasis severity / clinical efficacy (in words) ([1]; compared to placebo, 4-week treatment, 200 mg BID): rapid and statistically significant improvement in psoriasis severity compared to placebo as early as week 2; also recorded: consistent clinical efficacy in a 4-week treatment period; also recorded: clinically effective, with sustained clinical response; also recorded: effective in improving clinical parameters in human patients
LSm (±SE) % improvement from baseline in total PASI score ([1]; week 2, vs placebo 4.12%, p=0.005): 17.73% and 17.73 (2.75) %
ΔLSm (±SE) (Compound 1 minus placebo) in % improvement from baseline in total PASI score ([1]; week 2, 200 mg BID, 90% CI 5.28 to 21.94): 13.61% and 13.61 (4.92) %
LSm (±SE) % improvement from baseline in total PASI score ([1]; week 4, vs placebo 15.71%, p=0.009): 35.09% and 35.09 (4.47) %
ΔLSm (±SE) (Compound 1 minus placebo) in % improvement from baseline in total PASI score ([1]; week 4, 200 mg BID, 90% CI 6.28 to 32.48): 19.4% and 19.38% and 19.38 (7.75) %
mean reduction in total PASI score from baseline ([1]; week 4, FIG. 2, placebo around 1.25 points): around 3.0 points
Serum level of IL-17A (in words) ([2]; after treatment for 4 weeks): substantially decreased
Serum level of IL-17A, geometric mean (geometric SE) ([2]; baseline (before treatment)): 0.62 (1.15) pg/mL
Serum level of IL-17A, geometric mean (geometric SE) ([2]; week 2, 200 mg BID): 0.56 (1.13) pg/mL
Serum level of IL-17A, geometric mean (geometric SE) ([2]; week 4, 200 mg BID): 0.45 (1.14) pg/mL
